The text below walks through data of US6162875A, “Low nitrosamine systems for rubber vulcanization” (Robinson Brothers Limited, priority 1992, dated 2000).

For series [1], the system named is bacterial strains TA 1535, TA 1537, TA 1538, TA 98 and TA 100. Kind of series: Ames test for mutagenicity, revertant colony counts. The following applies: 50, 150, 500, 1500, 5000 μg/plate, with and without metabolic activation, five strains. On the technique in general: In the Ames test, an excess of revertant colonies over the control signals mutagenicity.
The test system is the same in series [2]. Briefly: Preliminary test for toxicity to the bacterial strains (Ames test). The following applies: for precipitates observed: 5000 μg dose, all strains.

For `O=NN(Cc1ccccc1)Cc1ccccc1` [N-nitrosodibenzylamine], in series [1], the “increase of revertant colony counts over control values” (“increase of revertant colony counts” below) is on record as “no increase of revertant colony counts over control values”. Also, the precipitates observed result in series [2] is on record as “precipitates were observed”. The “toxicity to the bacterial strains” value in series [2] (doses up to and including 5000 μg/plate) was “non-toxic”.

As to `CN(C)N=O` [dimethylnitrosamine], in the series with TA 1535, the “mutagenic to TA 1535” value is “mutagenic”. Also, in the series with TA 100, the “mutagenic to TA 100” value is reported as “mutagenic”.

Take N-nitrosodiisononylamine: the “increase of revertant colony counts” value in series [1] is reported as “no increase of revertant colony counts over control values”.

With “zinc diisononyldithiocarbamate [Example 1]”, the “increase of revertant colony counts” value in series [1] was “no increase of revertant colony counts over control values”. The precipitates observed entry in series [2] is listed as “precipitates were observed”.
